Assay: gradient 5% acetonitrile 3 min, to 50% in 2 min, to 85% in 15 min, held 3 min, 100 µL/min
Conditions: column: Zorbax Extend-C18 2.1 x 50 mm; eluents: water / acetonitrile, 0.1% formic acid
Procedure, shortened: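 Standards, all pure, were combined into mixtures of ~100 molecules and run at 100 μL/min on a Zorbax Extend-C18 column (2.1 × 50 mm, 1.8 μm) with water and acetonitrile, each containing 0.1% formic acid. A coupled quadrupole time-of-flight mass spectrometer operated in positive and negative ionization mode. Retention time values come from computationally picked adduct peaks, each inspected manually.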

Work on `CCN1C(=O)c2cccnc2Sc2cc(CNC(=O)c3ccc(NC(C)=O)cc3)ccc21` yielded an RP-LC retention time of 654 s.
For `COc1cc(NC(=O)C2CCN(S(=O)(=O)c3cc(-c4noc(C)n4)cs3)CC2)cc(OC)c1`, the RP-LC retention time was 902 s.
`CNC(=O)Nc1cccnc1N1CCCCC1` showed an RP-LC retention time of 544 s.
Work on `O=S(=O)(c1cccc(-c2cn3cc(Cl)ccc3n2)c1)N1CCCCCC1` yielded an RP-LC retention time of 944 s.
In the case of `CCOc1coc(C(=O)NCc2ccccc2OC)cc1=O`, the RP-LC retention time is reported as 644 s.
Compound `Cc1cc(C)c(S(=O)(=O)N2CCCC(C(=O)NCc3ccncc3)C2)c(C)c1` (stereo unspecified) has an RP-LC retention time of 647 s.
Compound `CCOc1ccc(N2C(=O)C3N=NN(Cc4nc(-c5ccc(Br)cc5)no4)C3C2=O)cc1` (stereo unspecified) has an RP-LC retention time of 1050 s.
For `O=C(NCCCN1CCCCC1)C1CCN(c2cncnc2N2CCCCC2)CC1`, the RP-LC retention time was 569 s.
Compound `Cc1cccc(NC(=O)c2cnn3c2CCCC3)c1` has an RP-LC retention time of 776 s.
Work on `Cc1cc2n(n1)CCC(=O)N2CCCC(=O)NC1CCCCC1` yielded an RP-LC retention time of 661 s.
`Cc1ccc(C)c(NC(=O)Cn2nc3n(c2=O)CCCC3)c1` gave an RP-LC retention time of 708 s.
For `O=C(C1CCCN(c2ccc(-c3ccccc3)nn2)C1)N1CCN(c2ccccc2)CC1` (stereo unspecified), the RP-LC retention time was 783 s.
In the case of `Cc1ccc(-c2cc3n(n2)CCCN(C(=O)c2cnccn2)C3)cc1`, the RP-LC retention time is reported as 766 s.
Compound `O=C(c1ccsc1)N1CCN(c2nnc3ccc(C(F)(F)F)cn23)CC1` has an RP-LC retention time of 718 s.
In the case of `Cc1cccc(C(=O)Nc2nc(-c3ccc4c(c3)N(C)C(=O)C(C)O4)cs2)c1` (stereo unspecified), the RP-LC retention time is reported as 1050 s.
For `COc1ccc(-c2nc3ccccn3c2NCc2ccccc2)cc1`, the RP-LC retention time was 724 s.
With `CCCCNC(=O)c1nccnc1NC(=O)c1ccccc1` the RP-LC retention time was 903 s.
For `CCCN(CCC)S(=O)(=O)c1ccc(C(=O)Nc2nc3c(s2)CCc2ccccc2-3)cc1`, the RP-LC retention time was 1310 s.
Work on `COc1ccc(NC(=O)N2C[C@H]3C[C@H](C2)[C@H]2CCCC(=O)N2C3)cc1OC` yielded an RP-LC retention time of 612 s.
In the case of `Cc1cc(C)c(-c2noc(C)n2)c(NC(=O)c2ccc(Cl)cc2)n1`, the RP-LC retention time is reported as 790 s.
With `Cc1ccc(CNC(=O)c2ccc3ccnc(N4CCN(c5ccc(F)cc5)CC4)c3c2)o1` the RP-LC retention time was 828 s.
`O[C@@H](c1cc(C(F)(F)F)nc2c(C(F)(F)F)cccc12)[C@@H]1CCCCN1` showed an RP-LC retention time of 829 s.
Work on `COC(=O)c1cc(S(=O)(=O)N2CCCC2C(=O)Nc2ccc(C)cc2C)cn1C` (stereo unspecified) yielded an RP-LC retention time of 915 s.
Work on `O=C(Cc1cccc(F)c1)N1CCCC1c1nc(-c2ccccc2Cl)no1` (stereo unspecified) yielded an RP-LC retention time of 1200 s.
For `Cc1ccc(NC(=O)NC2CCN(c3ccc(F)c(C)c3)C2=O)cc1C` (stereo unspecified), the RP-LC retention time was 899 s.
With `CCOc1ccc2ncc(C#N)c(NCc3ccccc3)c2c1` the RP-LC retention time was 634 s.
For `Cc1cccc(Nc2c(-c3ccc(N(C)C)cc3)nc3ncccn23)c1`, the RP-LC retention time was 745 s.
`CC(C)C(=O)Nc1ccc2c(c1)Sc1ncccc1C(=O)N2C(C)C` gave an RP-LC retention time of 764 s.
For `CCOC(=O)c1nc(Nc2cc(F)ccc2F)c2ccccc2n1`, the RP-LC retention time was 912 s.
In the case of `CCc1nc2ccccc2c(C(=O)NC2CCCCC2)c1C`, the RP-LC retention time is reported as 650 s.
In the case of `CCNc1cc(N2CCCC(CCC(=O)Nc3ccc(OCC)cc3)C2)ncn1` (stereo unspecified), the RP-LC retention time is reported as 699 s.
`Cn1ncc2cc3c(Nc4ccc(Cl)cc4)cccc3nc21` showed an RP-LC retention time of 670 s.
For `Cc1cc(NC(=O)CN(C)c2nc3c(Cl)cccc3s2)no1`, the RP-LC retention time was 809 s.
Work on `Cc1c(-c2noc(-c3ccccc3)n2)nnn1-c1ccc(F)cc1` yielded an RP-LC retention time of 1070 s.
`O=C(O)c1ccccc1C(=O)Nc1cccc(Cl)c1` showed an RP-LC retention time of 701 s.
Work on `OC[C@@H]1CN(C2CCCC2)C[C@H]1c1nc(-c2ccncc2)no1` yielded an RP-LC retention time of 553 s.
In the case of `COC(=O)c1c(-c2ccc(Cl)cc2)noc1NCCN1CCN(C)CC1`, the RP-LC retention time is reported as 660 s.
With `O=C(Nc1nc(-c2nc3ccccc3s2)cs1)c1coc2ccccc2c1=O` the RP-LC retention time was 1160 s.
`COc1ccc(OC)c(CNC(=O)Cn2cc(-c3nnco3)c3ccccc32)c1` gave an RP-LC retention time of 765 s.
`CCCn1cc(S(=O)(=O)Nc2ccc(Cl)cc2)c2cccnc21` gave an RP-LC retention time of 942 s.
For `O=C1NCC/C1=C\c1ccc(C(F)(F)F)cc1`, the RP-LC retention time was 718 s.
With `Cc1ccc(S(=O)(=O)N2CCC(n3cnnc3C(C)C)CC2)c(C)c1` the RP-LC retention time was 784 s.
`O=C(NCc1ccco1)c1nc(Nc2ccc(F)cc2)c2ccccc2n1` showed an RP-LC retention time of 779 s.
For `COCC(=O)N1CCc2c(sc3ncnc(N4CCOCC4)c23)C1`, the RP-LC retention time was 623 s.
With `O=C1C(N2CCCN(S(=O)(=O)c3cc(F)cc(F)c3)CC2)CCN1CC1CC1` (stereo unspecified) the RP-LC retention time was 661 s.
Compound `CCN1CCn2cc(C(=O)NCc3ccc(C(C)C)cc3)nc2C1` has an RP-LC retention time of 644 s.
Compound `Cn1c(N2CCN(C(=O)c3cc4ccccc4[nH]3)CC2)cc(=O)n(C)c1=O` has an RP-LC retention time of 691 s.
`Cc1cc(C(F)F)n2nc(C(=O)Nc3cc(F)ccc3C)nc2n1` gave an RP-LC retention time of 852 s.
Compound `CNC(=O)Nc1cc(C)n(Cc2ccccc2)n1` has an RP-LC retention time of 738 s.
With `COc1ccccc1N1CCN([C@H]2CS(=O)(=O)C[C@@H]2S(=O)(=O)c2ccc(F)c(C)c2)CC1` the RP-LC retention time was 864 s.
For `Cc1nc2cc(-c3noc(-c4cc(F)ccc4F)n3)ccc2o1`, the RP-LC retention time was 1070 s.
`Cc1nn(C(C)C(=O)Nc2cccc(F)c2)c(=O)c2c(-n3cccc3)n(-c3ccccc3)nc12` (stereo unspecified) gave an RP-LC retention time of 1120 s.
In the case of `CC1=C(c2ccc(C)c(C)c2)S(=O)(=O)N=C1N1CCCN(C(=O)NC2CCCC2)CC1`, the RP-LC retention time is reported as 876 s.
For `CCc1nc2cc(-c3noc(COc4cccc(C)c4)n3)ccc2o1`, the RP-LC retention time was 1280 s.
`COc1cccc(CNC(=O)c2cn3cccc(C)c3n2)c1OC` showed an RP-LC retention time of 541 s.
Compound `Cc1cc2c(cc1S(=O)(=O)N1CCCC1C(=O)Nc1ccc(F)cc1)OCC(=O)N2` (stereo unspecified) has an RP-LC retention time of 743 s.
`COc1cc(NC(=O)Cn2nc(N3CCC(C)CC3)c3ccccc3c2=O)cc(OC)c1` gave an RP-LC retention time of 1110 s.
With `CC(C)Cc1ccc(S(=O)(=O)N2CCc3c(c(-c4nnc(-c5ccccc5F)o4)nn3C)C2)cc1` the RP-LC retention time was 1140 s.
`CCCc1ccc(S(=O)(=O)N2CCC(c3noc(-c4cccc(C)c4)n3)CC2)cc1` gave an RP-LC retention time of 1370 s.
Work on `Cc1ccc(CN(Cc2cc(=O)n3cc(Cl)ccc3n2)CC(C)C)cc1` yielded an RP-LC retention time of 624 s.
For `CCOCC(=O)Nc1ccc2c(c1)Sc1ncccc1C(=O)N2CC`, the RP-LC retention time was 697 s.
Compound `CCc1ccc(CN2C(=O)C3(CCOCC3)CC2c2nnnn2C(C)(C)C)cc1` (stereo unspecified) has an RP-LC retention time of 862 s.
`O=C(Nc1ccc2nc3n(c(=O)c2c1)CCCC3)c1cc2ccccc2[nH]1` gave an RP-LC retention time of 720 s.
In the case of `Cc1ccc(C2Cn3nnc(-c4nc(-c5cccc(Cl)c5)no4)c3CO2)c(C)c1` (stereo unspecified), the RP-LC retention time is reported as 1400 s.
`CC(Oc1ccccc1)C(=O)N1CC(n2ccnc2)C1` (stereo unspecified) showed an RP-LC retention time of 584 s.
Compound `CN(C)C(CNC(=O)Nc1ccccc1Cl)c1cn(C)c2ccccc12` (stereo unspecified) has an RP-LC retention time of 589 s.
With `CC(C)(C)c1ccc(C(=O)N2CCN=C2N2CCCC2)cc1` the RP-LC retention time was 738 s.
In the case of `COc1ccc(NC(=O)c2ccc(-c3cncnc3)nc2)cc1Cl`, the RP-LC retention time is reported as 735 s.
Work on `CCCCn1nc2c(S(=O)(=O)N3CCCCC3)cccn2c1=O` yielded an RP-LC retention time of 831 s.
Compound `Cc1nc2c(ccc3nc(NC(=O)c4ccc5c(c4)OCCO5)sc32)s1` has an RP-LC retention time of 858 s.
Work on `CCc1ccc(CNC(=O)C2CCCN(c3ncnc4c3oc3ccccc34)C2)cc1` (stereo unspecified) yielded an RP-LC retention time of 871 s.
Work on `Fc1cccc(-n2cc(-c3noc(-c4ccc5c(c4)OCO5)n3)nn2)c1` yielded an RP-LC retention time of 1010 s.
In the case of `COc1ccc(OC)c(CNC(=O)c2[nH]c3cc(C)sc3c2CN(C)C)c1`, the RP-LC retention time is reported as 676 s.
Compound `O=C(c1ccc(F)c(F)c1)N1CCOC(c2ccccc2)C1` (stereo unspecified) has an RP-LC retention time of 845 s.
For `Cc1nc(-c2csc(S(=O)(=O)N3CCC(C(=O)N4CCCCCC4)CC3)c2)no1`, the RP-LC retention time was 859 s.
`CCn1cc(C(=O)Nc2ccc(F)c(C)c2)c2cccnc21` showed an RP-LC retention time of 896 s.
Work on `CCn1cc(-c2nc(C(=O)Nc3ccc(OC)cc3)cs2)c2cccnc21` yielded an RP-LC retention time of 1000 s.
`COc1cccc(CN2CCn3c(nnc3[C@@H]3C[C@@H](O)CN3C)C2)c1` showed an RP-LC retention time of 574 s.
For `O=C(O)[C@@H]1OCC(=O)N(C2CC2)[C@H]1c1ccccc1`, the RP-LC retention time was 648 s.
With `Cc1sc(-c2nnc(C3CC3)o2)cc1NC(=O)C1CC1` the RP-LC retention time was 819 s.
With `Cn1c(CN2CCN(C(=O)Nc3ccccc3C(F)(F)F)CC2)nc2ccccc21` the RP-LC retention time was 558 s.
Work on `Cn1cc(-c2ccc(F)cc2)cc1C(=O)NCCN1CCCCC1` yielded an RP-LC retention time of 672 s.
`CCN1c2ccc(C)cc2C(=O)NC12CCN(C(=O)c1ccc(C)cc1C)CC2` gave an RP-LC retention time of 902 s.
Compound `O=c1[nH]ccc2c(O)cccc12` has an RP-LC retention time of 584 s.
For `CCOC(=O)c1[nH]c(C)c(CN(Cc2ccco2)C(=O)c2ccc(N(C)C)cc2)c1C`, the RP-LC retention time was 894 s.
Compound `O=C(NCCOc1cccc(C(F)(F)F)c1)c1ccc([N+](=O)[O-])cc1` has an RP-LC retention time of 913 s.
`CCOC(=O)c1cc(C2CC2)nc2c1c(=O)n(CCc1c(C)noc1C)c(=O)n2C` gave an RP-LC retention time of 980 s.
`COc1cc(Cl)c(NC(=O)C2CCCN(c3nc4ccccc4nc3OC)C2)c(OC)c1` (stereo unspecified) gave an RP-LC retention time of 1250 s.
With `Cc1c(CCC(=O)N2CCC3(O)CCCCC3C2)c(=O)oc2cc(O)ccc12` (stereo unspecified) the RP-LC retention time was 652 s.
Compound `COc1ccccc1CN1CCc2nc(N3CCN(c4ccccc4OC)CC3)ncc2C1` has an RP-LC retention time of 687 s.
`CC(=O)N1c2ccc(S(=O)(=O)N3CCC(c4ccncc4)CC3)cc2CC1C` (stereo unspecified) gave an RP-LC retention time of 620 s.

From the METLIN SMRT retention time set (Domingo-Almenara et al. 2019)
